In paper doi:10.1101/2021.01.09.426030v4 (biorxiv, 2022) one finds IC50 data, which are given here for one compound.

Some results are limits rather than exact numbers.

Test systems include BT179; BT112; BT333.
Holding throughout (test): cells
What all share (set-up): species or system GBM PDCLs
What all share (details): 72 h, read-out: Erlotinib (IC50 µM)

With `C#Cc1cccc(Nc2ncnc3cc(OCCOC)c(OCCOC)cc23)c1` [erlotinib], the IC50 in the experiment on BT179 was 11.7 µM; in the experiment on BT112, 18.5 µM; with BT333, over 20 µM.

The IC50 is the point on the concentration scale where inhibition reaches its midpoint.
